Experimental data from PubChem BioAssay AID330 (DTP/NCI, 2004).
Values joined by “and” are separate entries in the source; they are usually repeats but may differ in a detail not shown here. Identical values can stand only once. Inconclusive results and toxic doses are left out. Square brackets hold non-standard residues; d marks the D form. Peptide text beside a SMILES is read from it. * marks the point of attachment. Cbz = O=C(OCc1ccccc1)*; Nva = CCC[CH](N)C(=O)O

System: P388 leukemia ip, CD2F1 mice, survival T/C
Test: NCI In Vivo Anticancer Drug Screen. Data for tumor model P388 Leukemia (intraperitoneal) in CD2F1 (CDF1) mice
Settings: endpoint: median survival time, higher = longer survival
Summary of the method: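 Mice carrying the transplanted tumor received test compound or vehicle. Survival was recorded in each group, and the value is the treated-group measurement divided by that of the vehicle-treated control group.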

[1] = dose: 30.0 mg/kg/injection, schedule: Q01DX005 (ip), vehicle: Klucel (hydroxypropylcellulose) (HPC)
[2] = dose: 60.0 mg/kg/injection, schedule: Q01DX005 (ip), vehicle: Klucel (hydroxypropylcellulose) (HPC)
[3] = dose: 25.0 mg/kg/injection, schedule: Q01DX009 (ip), vehicle: saline
[4] = dose: 50.0 mg/kg/injection, schedule: Q01DX009 (ip), vehicle: saline
[5] = dose: 100.0 mg/kg/injection, schedule: Q01DX009 (ip), vehicle: saline
[6] = dose: 60.0 mg/kg/injection, schedule: Q01DX005 (ip), vehicle: saline with Tween-80
[7] = dose: 240.0 mg/kg/injection, schedule: Q01DX005 (ip), vehicle: saline with Tween-80
[8] = dose: 50.0 mg/kg/injection, schedule: Q01DX009 (ip), vehicle: Klucel (hydroxypropylcellulose) (HPC)
[9] = dose: 100.0 mg/kg/injection, schedule: Q01DX009 (ip), vehicle: Klucel (hydroxypropylcellulose) (HPC)
[10] = dose: 200.0 mg/kg/injection, schedule: Q01DX009 (ip), vehicle: Klucel (hydroxypropylcellulose) (HPC)
[11] = dose: 50.0 mg/kg/injection, schedule: Q01DX005 (ip), vehicle: saline with Tween-80
[12] = dose: 100.0 mg/kg/injection, schedule: Q01DX005 (ip), vehicle: saline with Tween-80
[13] = dose: 200.0 mg/kg/injection, schedule: Q01DX005 (ip), vehicle: saline with Tween-80
[14] = dose: 100.0 mg/kg/injection, schedule: Q01DX009 (ip), vehicle: saline with Tween-80
[15] = dose: 200.0 mg/kg/injection, schedule: Q01DX009 (ip), vehicle: saline with Tween-80
[16] = dose: 50.0 mg/kg/injection, schedule: Q01DX005 (ip), vehicle: Klucel (hydroxypropylcellulose) (HPC)
[17] = dose: 100.0 mg/kg/injection, schedule: Q01DX005 (ip), vehicle: Klucel (hydroxypropylcellulose) (HPC)
[18] = dose: 200.0 mg/kg/injection, schedule: Q01DX005 (ip), vehicle: Klucel (hydroxypropylcellulose) (HPC)
[19] = dose: 25.0 mg/kg/injection, schedule: Q01DX005 (ip), vehicle: Klucel (hydroxypropylcellulose) (HPC)
[20] = dose: 120.0 mg/kg/injection, schedule: Q01DX005 (ip), vehicle: Klucel (hydroxypropylcellulose) (HPC)
[21] = dose: 240.0 mg/kg/injection, schedule: Q01DX005 (ip), vehicle: Klucel (hydroxypropylcellulose) (HPC)
[22] = dose: 120.0 mg/kg/injection, schedule: Q01DX005 (ip), vehicle: saline with Tween-80
[23] = dose: 200.0 mg/kg/injection, schedule: Q01DX009 (ip), vehicle: saline
[24] = dose: 50.0 mg/kg/injection, schedule: Q01DX001 (ip), vehicle: Klucel (hydroxypropylcellulose) (HPC)
[25] = dose: 100.0 mg/kg/injection, schedule: Q01DX001 (ip), vehicle: Klucel (hydroxypropylcellulose) (HPC)
[26] = dose: 200.0 mg/kg/injection, schedule: Q01DX001 (ip), vehicle: Klucel (hydroxypropylcellulose) (HPC)

SMILES: C(=P(c1ccccc1)(c1ccccc1)c1ccccc1)[P+](c1ccccc1)(c1ccccc1)c1ccccc1
- T/C (dose: 3.12 mg/kg/injection, schedule: Q01DX009 (ip), vehicle: saline): 111 % of control
- T/C (dose: 3.12 mg/kg/injection, schedule: Q01DX009 (ip), vehicle: suspension in saline): 111 % of control
- T/C (dose: 6.25 mg/kg/injection, schedule: Q01DX009 (ip), vehicle: saline): 104 % of control
- T/C (dose: 6.25 mg/kg/injection, schedule: Q01DX009 (ip), vehicle: suspension in saline): 112 % of control
- T/C (dose: 12.5 mg/kg/injection, schedule: Q01DX009 (ip), vehicle: suspension in saline): 119 % of control

SMILES: N#C/C(=N\Nc1ccc(Cl)cc1)C(=O)C1CC1
- T/C (dose: 15.0 mg/kg/injection, schedule: Q01DX005 (ip), vehicle: Klucel (hydroxypropylcellulose) (HPC)): 105 % of control
- T/C [1]: 98 % of control
- T/C [2]: 99 % of control and 91 % of control

SMILES: CCCCCCCCCCCCC1=NCC[N+]1(CCO)CC(O)COc1cc(Cl)c(Cl)cc1Cl (stereo unspecified)
- T/C (dose: 12.5 mg/kg/injection, schedule: Q01DX009 (ip), vehicle: saline): 105 % of control
- T/C [3]: 105 % of control
- T/C [4]: 102 % of control and 95 % of control
- T/C [5]: 90 % of control

SMILES: C1=CCC(C(Nc2nncs2)Nc2nncs2)CC1 (stereo unspecified)
- T/C [6]: 107 % of control
- T/C [7]: 108 % of control

SMILES: CCN(CC)C(=S)Oc1cc(C)nc(SCC(=O)c2ccc(Cl)cc2)n1
- T/C [8]: 108 % of control
- T/C [9]: 100 % of control
- T/C [10]: 103 % of control

SMILES: COc1ncnc2c1ncn2C1CCCCO1 (stereo unspecified)
- T/C [11]: 97 % of control
- T/C [12]: 101 % of control
- T/C [13]: 99 % of control

SMILES: COC(=O)C1CC1(Cl)OC (stereo unspecified)
- T/C (dose: 50.0 mg/kg/injection, schedule: Q01DX009 (ip), vehicle: saline with Tween-80): 102 % of control
- T/C [14]: 102 % of control
- T/C [15]: 105 % of control

SMILES: N=Cc1c(O)n(C2CCCCC2)c(=O)n(C2CCCCC2)c1=O
- T/C [14]: 100 % of control
- T/C [15]: 95 % of control
- T/C (dose: 400.0 mg/kg/injection, schedule: Q01DX009 (ip), vehicle: saline with Tween-80): 100 % of control

SMILES: CN=C(NC)c1ccc(NC(=O)c2ccc(C(=O)Nc3ccc(C(=NC)NC)c(C)c3)cc2)cc1C
- T/C (dose: 6.25 mg/kg/injection, schedule: Q01DX005 (ip), vehicle: saline with Tween-80): 111 % of control and 118 % of control
- T/C (dose: 12.5 mg/kg/injection, schedule: Q01DX005 (ip), vehicle: saline with Tween-80): 119 % of control
- T/C (dose: 25.0 mg/kg/injection, schedule: Q01DX005 (ip), vehicle: saline with Tween-80): 164 % of control and 173 % of control

SMILES: CCCC(NC(=O)OCc1ccccc1)C(=O)NC(Cc1ccccc1)C(N)=O (stereo unspecified) (Cbz-[Nva]-Phe-NH2; configuration not given here)
- T/C [16]: 89 % of control
- T/C [17]: 97 % of control
- T/C [18]: 88 % of control

SMILES: CN1CCc2c3c(c4c(c21)CCN4C)CCc1ccccc1-3
- T/C [16]: 104 % of control
- T/C [17]: 101 % of control
- T/C [18]: 96 % of control

SMILES: COC1=C(OC)S[C@H]2C3CC([C@H]2S1)[C@@H]1SC(OC)=C(OC)S[C@H]31
- T/C [16]: 97 % of control
- T/C [17]: 97 % of control
- T/C [18]: 98 % of control

SMILES: Cc1nc2ccccc2c(=O)n1/N=C1\C(=O)N(C)c2ccccc21
- T/C (dose: 12.5 mg/kg/injection, schedule: Q01DX005 (ip), vehicle: Klucel (hydroxypropylcellulose) (HPC)): 100 % of control
- T/C [19]: 96 % of control
- T/C [16]: 91 % of control and 96 % of control
- T/C [17]: 105 % of control

SMILES: COC(=O)/C(=C/c1ccccc1)NC(C)=O
- T/C [2]: 104 % of control
- T/C [20]: 101 % of control
- T/C [21]: 97 % of control

SMILES: S=c1nc(-c2ccccn2)c(-c2ccccn2)n[nH]1
- T/C [11]: 116 % of control and 117 % of control
- T/C [12]: 121 % of control
- T/C [13]: 119 % of control and 120 % of control
- T/C (dose: 400.0 mg/kg/injection, schedule: Q01DX005 (ip), vehicle: saline with Tween-80): 120 % of control

SMILES: c1ccc(N/N=C2/c3ccccc3CC23OC3c2ccccc2)cc1 (stereo unspecified)
- T/C (dose: 25.0 mg/kg/injection, schedule: Q01DX009 (ip), vehicle: Klucel (hydroxypropylcellulose) (HPC)): 90 % of control
- T/C [8]: 90 % of control
- T/C [9]: 88 % of control
- T/C [10]: 87 % of control
- T/C (dose: 400.0 mg/kg/injection, schedule: Q01DX009 (ip), vehicle: Klucel (hydroxypropylcellulose) (HPC)): 88 % of control

SMILES: COc1cc(N)c(C)c2c(C)ccnc12
- T/C [1]: 106 % of control
- T/C [2]: 92 % of control and 97 % of control

SMILES: COC(SC)(SC)c1cc(-c2c(Cl)cccc2Cl)no1
- T/C [6]: 101 % of control
- T/C [22]: 101 % of control
- T/C [7]: 103 % of control

SMILES: N#Cc1ccc[n+](Cc2ccccc2)c1
- T/C [11]: 100 % of control
- T/C [12]: 103 % of control
- T/C [13]: 100 % of control

SMILES: CC(C)(C)N1N=C2CCCC2[Si]1(C)C (stereo unspecified)
- T/C [19]: 105 % of control
- T/C [16]: 102 % of control
- T/C [17]: 102 % of control

SMILES: C[N+]1(C)CCC(Cl)CC1
- T/C (dose: 3.75 mg/kg/injection, schedule: Q01DX005 (ip), vehicle: saline): 104 % of control
- T/C (dose: 7.5 mg/kg/injection, schedule: Q01DX005 (ip), vehicle: saline): 103 % of control
- T/C (dose: 15.0 mg/kg/injection, schedule: Q01DX005 (ip), vehicle: saline): 99 % of control
- T/C (dose: 30.0 mg/kg/injection, schedule: Q01DX005 (ip), vehicle: saline): 100 % of control and 102 % of control

SMILES: CCCOCC(=O)OC
- T/C [4]: 98 % of control
- T/C [5]: 99 % of control
- T/C [23]: 100 % of control

SMILES: COCCC(=O)NC1CCCC[CH]1[Hg][Cl] (stereo unspecified)
- T/C (dose: 25.0 mg/kg/injection, schedule: Q04DX003 (ip), vehicle: Klucel (hydroxypropylcellulose) (HPC)): 97 % of control

SMILES: CN1C(=O)C(n2[nH]c(=O)n(-c3ccccc3)c2=O)C(=O)N(C)C1=O
- T/C [8]: 99 % of control
- T/C [9]: 89 % of control
- T/C [10]: 103 % of control

SMILES: NC(=S)c1ccc(C=Nc2ccccc2)cc1
- T/C [24]: 101 % of control
- T/C [25]: 99 % of control
- T/C [26]: 100 % of control

SMILES: Cc1c(-c2ccccc2)ccnc1/C=N/NC(=S)Nc1ccc(N(C)C)cc1
- T/C (dose: 3.12 mg/kg/injection, schedule: Q01DX009 (ip), vehicle: saline with Tween-80): 119 % of control
- T/C (dose: 6.25 mg/kg/injection, schedule: Q01DX009 (ip), vehicle: saline with Tween-80): 153 % of control

SMILES: Cc1ccccc1-n1c(C)nc2[nH]ncc2c1=O
- T/C [16]: 105 % of control
- T/C [17]: 98 % of control
- T/C [18]: 96 % of control

SMILES: CCCC(=O)NNC(=O)c1ccccn1
- T/C (dose: 25.0 mg/kg/injection, schedule: Q01DX009 (ip), vehicle: saline sonified): 90 % of control
- T/C (dose: 50.0 mg/kg/injection, schedule: Q01DX009 (ip), vehicle: saline sonified): 95 % of control
- T/C (dose: 100.0 mg/kg/injection, schedule: Q01DX009 (ip), vehicle: saline sonified): 100 % of control

SMILES: Clc1cccc2nnc(Br)n12
- T/C [24]: 98 % of control
- T/C [25]: 102 % of control
- T/C [26]: 111 % of control

SMILES: CC(O)/C(=N\Nc1ccccc1)c1nc2ccccc2[nH]c1=O (stereo unspecified)
- T/C (dose: 30.0 mg/kg/injection, schedule: Q01DX005 (ip), vehicle: saline with Tween-80): 92 % of control
- T/C [6]: 89 % of control
- T/C [22]: 88 % of control

SMILES: CC(=O)OCc1ccc[n+]([O-])c1
- T/C [3]: 99 % of control and 96 % of control
- T/C [4]: 99 % of control and 103 % of control
- T/C [5]: 99 % of control and 103 % of control
- T/C [23]: 99 % of control and 86 % of control
- T/C (dose: 400.0 mg/kg/injection, schedule: Q01DX009 (ip), vehicle: saline): 99 % of control and 109 % of control

SMILES: O=C1OC2(c3ccc(O)cc3Oc3cc(O)ccc32)C2C3C=CC(C3)C12 (stereo unspecified)
- T/C [2]: 100 % of control
- T/C [20]: 104 % of control
- T/C [21]: 100 % of control
